# Measurements taken from patent US20260184663A1, “INDENE COMPOUNDS, PHARMACEUTICAL COMPOSITIONS THEREOF, AND THEIR THERAPEUTIC APPLICATIONS” (NucMito Pharmaceuticals co. Ltd., priority 2022, published 2026).
# Read-outs that look alike come from different tables or passages of the source.
# How the values were obtained:
# Assay type in all cases: cell-based
# [1] = system: MDA-MB-231 (breast cancer); assay: Antiproliferative activity (CCK-8 cell viability), MDA-MB-231; conditions: Homo sapiens, 72 h, read-out: Antiproliferative activity in cancerous cells, MDA-MB-231 (inhibition of cell growth); for inhibition at 3.3 µM: Compound concentration: 3.3 μM; for inhibition at 10 µM: Compound concentration: 10 μM
# Description: (§1) The antiproliferative activity of a compound was determined in the following cell lines: MDA-MB-231 (breast cancer), HepG2 (liver cancer), SW480 (colon cancer), B16F10 (malignant melanoma), A431 (epidermoid carcinoma), A549 (lung adenocarcinoma), and HeLa (cervical cancer). MDA-MB-231, HepG2, SW480, B16F10, and A431 cells were cultured in Dulbecco's modified Eagle's medium (DMEM) containing 10% fetal bovine serum (FBS). HeLa cells were cultured in MEM/EBSS (MEM) containing 10% FBS. A549 cells were maintained in Kaighn's modification of Ham's F-12 medium containing 10% FBS. A Cell Counting Kit-8 (CCK-8) was used to measure the cell viability of different cells following treatment with the compound.
# (§2) Briefly cells were seeded in a 96-well plate at a density of 2,000-5,000 cells/well. Following attachment, the cells were treated with the compound in media at a compound concentration of 3.3 μM, 10 μM, or 30 μM. After the cells were incubated at 37° C. for 72 h, a CCK-8 solution (10 μL) was added to each well. After incubation at 37° C. for 4 h, the absorbance value of each well was determined using a multi-well plate reader at 450 nm. The wells treated with DMSO were taken as a vehicle control. Data were also obtained similarly for all the replicates and the percentage of cell viability was determined with respect to the DMSO-treated cells. The results are summarized in Tables 2-4, wherein A represents no less than […] of cell growth; B represents no less than 30% but less than 50% inhibition of cell growth; and C represents less than 30% inhibition of cell growth.
# HepG2 (liver cancer) = assay: Antiproliferative activity (CCK-8 cell viability), HepG2; conditions: Homo sapiens, 72 h, read-out: Antiproliferative activity in cancerous cells, HepG2 (inhibition of cell growth); for inhibition at 3.3 µM: Compound concentration: 3.3 μM; for inhibition at 10 µM: Compound concentration: 10 μM
# Description: as §1, §2
# HeLa (cervical cancer) = assay: Antiproliferative activity (CCK-8 cell viability), HeLa; conditions: Homo sapiens, 72 h, read-out: Antiproliferative activity in cancerous cells, HELA (inhibition of cell growth); for inhibition at 3.3 µM: Compound concentration: 3.3 μM; for inhibition at 10 µM: Compound concentration: 10 μM
# Description: as §1, §2
# SW480 (colon cancer) = assay: Antiproliferative activity (CCK-8 cell viability), SW480; conditions: Homo sapiens, 72 h; for inhibition at 3.3 µM: Compound concentration: 3.3 μM; for inhibition at 10 µM: Compound concentration: 10 μM; for inhibition at 30 µM: Compound concentration: 30 μM
# Description: as §1, §2
# [2] = system: B16F10 (malignant melanoma); assay: Antiproliferative activity (CCK-8 cell viability), B16F10; conditions: Mus musculus, 72 h, read-out: Antiproliferative activity in cancerous cells, B16F10 (inhibition of cell growth); for inhibition at 3.3 µM: B16-F10, Compound concentration: 3.3 μM; for inhibition at 10 µM: B16-F10, Compound concentration: 10 μM
# Description: as §1, §2
# [3] = system: A549 (lung adenocarcinoma); assay: Antiproliferative activity (CCK-8 cell viability), A549; conditions: Homo sapiens, 72 h; for inhibition at 3.3 µM: Compound concentration: 3.3 μM; for inhibition at 10 µM: Compound concentration: 10 μM; for inhibition at 30 µM: Compound concentration: 30 μM
# Description: as §1, §2
# [4] = system: A431 (epidermoid carcinoma); assay: Antiproliferative activity (CCK-8 cell viability), A431; conditions: Homo sapiens, 72 h, read-out: Antiproliferative activity in cancerous cells, A431 (inhibition of cell growth); for inhibition at 3.3 µM: A-431, Compound concentration: 3.3 μM; for inhibition at 10 µM: A-431, Compound concentration: 10 μM
# Description: as §1, §2
# [5] = read-out: Antiproliferative activity in cancerous cells, SW480 (inhibition of cell growth)
# [6] = read-out: Antiproliferative activity in cancerous cells, A549 (inhibition of cell growth)
SMILES,inhibition at 3.3 µM [1] [%],inhibition at 10 µM [1] [%],inhibition at 3.3 µM (HepG2 (liver cancer)) [%],inhibition at 10 µM (HepG2 (liver cancer)) [%],inhibition at 3.3 µM (HeLa (cervical cancer)) [%],inhibition at 10 µM (HeLa (cervical cancer)) [%],inhibition at 3.3 µM (SW480 (colon cancer); [5]) [%],inhibition at 10 µM (SW480 (colon cancer); [5]) [%],inhibition at 3.3 µM [2] [%],inhibition at 10 µM [2] [%],"inhibition at 3.3 µM [3, 6] [%]","inhibition at 10 µM [3, 6] [%]",inhibition at 3.3 µM [4] [%],inhibition at 10 µM [4] [%],also measured
"CCc1ccc2c(c1)C(CC(=O)O)=C(C)/C2=C/c1ccc(COc2ccc(F)c(F)c2)cc1 [B55, (Z)-2-(1-(4-((3,4-Difluorophenoxy)methyl)benzylidene)-5-ethyl-2-methyl-1H-inden-3-yl)acetic acid]",≥ 50,≥ 50,< 30,≥ 50,< 30,≥ 50,< 30,≥ 50,≥ 50,≥ 50,30 to 50,≥ 50,30 to 50,≥ 50,
"COc1ccc(Oc2cccc(/C=C3/C(C)=C(CC(=O)O)c4cc(Cl)ccc43)c2)cc1 [C92, (Z)-2-(5-Chloro-1-(3-(4-methoxyphenoxy)benzylidene)-2-methyl-1H-inden-3-yl)acetic acid]",< 30,< 30,≥ 50,≥ 50,≥ 50,≥ 50,≥ 50,≥ 50,< 30,< 30,< 30,≥ 50,≥ 50,≥ 50,
"COc1ccc2c(c1)C(CC(=O)O)=C(C)/C2=C/c1ccc(Oc2ccc(Cl)cc2)cc1 [C72, (Z)-2-(1-(4-(4-Chlorophenoxy)benzylidene)-5-methoxy-2-methyl-1H-inden-3-yl)acetic acid]",30 to 50,30 to 50,< 30,< 30,≥ 50,≥ 50,< 30,< 30,≥ 50,≥ 50,< 30,< 30,30 to 50,30 to 50,"inhibition at 30 µM (SW480 (colon cancer); read-out: Antiproliferative activity in cancerous cells, SW480): < 30%; inhibition at 30 µM ([3]; read-out: Antiproliferative activity in cancerous cells, A549): 30 to 50%"
"COc1ccc2c(c1)C(CC(=O)O)=C(C)/C2=C/c1ccc(COCc2ccc(Cl)cc2)cc1 [B118, (Z)-2-(1-(4-(((4-Chlorobenzyl)oxy)methyl)benzylidene)-5-methoxy-2-methyl-1H-inden-3-yl)acetic acid]",< 30,< 30,< 30,≥ 50,< 30,≥ 50,≥ 50,≥ 50,≥ 50,≥ 50,30 to 50,≥ 50,≥ 50,≥ 50,
"CC1=C(CC(=O)O)c2cc(F)ccc2/C1=C\c1ccc(-c2ccc(Cl)cc2)cc1 [D13, (Z)-2-(1-((4′-Chloro-[1,1′-biphenyl]-4-yl)methylene)-5-fluoro-2-methyl-1H-inden-3-yl)acetic acid]",< 30,30 to 50,< 30,< 30,< 30,≥ 50,30 to 50,30 to 50,≥ 50,≥ 50,< 30,< 30,< 30,30 to 50,"inhibition at 30 µM ([1]; Compound concentration: 30 μM): ≥ 50%; inhibition at 30 µM (HepG2 (liver cancer); Compound concentration: 30 μM): < 30%; inhibition at 30 µM (HeLa (cervical cancer); Compound concentration: 30 μM): ≥ 50%; inhibition at 30 µM (SW480 (colon cancer); [5]): 30 to 50%; inhibition at 30 µM ([2]; B16-F10, Compound concentration: 30 μM): ≥ 50%; inhibition at 30 µM [3, 6]: 30 to 50%; inhibition at 30 µM ([4]; A-431, Compound concentration: 30 μM): 30 to 50%"
"CC1=C(CC(=O)O)c2cc(F)ccc2/C1=C\c1ccc(CCOc2ccc(F)cc2)cc1 [B33, (Z)-2-(5-Fluoro-1-(4-(2-(4-fluorophenoxy)ethyl)benzylidene)-2-methyl-1H-inden-3-yl)acetic acid]",< 30,30 to 50,< 30,30 to 50,< 30,30 to 50,< 30,30 to 50,≥ 50,≥ 50,< 30,30 to 50,≥ 50,≥ 50,
"CC1=C(CC(=O)O)c2cc(F)ccc2/C1=C\c1ccc(Oc2ccc(I)cc2)cc1 [C57, (Z)-2-(5-Fluoro-1-(4-(4-iodophenoxy)benzylidene)-2-methyl-1H-inden-3-yl)acetic acid]",< 30,≥ 50,30 to 50,≥ 50,< 30,≥ 50,< 30,≥ 50,≥ 50,≥ 50,30 to 50,≥ 50,30 to 50,≥ 50,
"CC1=C(CC(=O)O)c2cc(F)ccc2/C1=C\c1ccc(CCCc2ccc(F)cc2)cc1 [B117, (Z)-2-(5-Fluoro-1-(4-(3-(4-fluorophenyl)propyl)benzylidene)-2-methyl-1H-inden-3-yl)acetic acid]",< 30,< 30,≥ 50,≥ 50,< 30,≥ 50,≥ 50,≥ 50,< 30,≥ 50,30 to 50,≥ 50,30 to 50,≥ 50,
"CC1=C(CC(=O)O)c2cc(F)ccc2/C1=C\c1ccc(Oc2ccc(O)c(Cl)c2)cc1 [C81, (Z)-2-(1-(4-(3-Chloro-4-hydroxyphenoxy)benzylidene)-5-fluoro-2-methyl-1H-inden-3-yl)acetic acid]",30 to 50,≥ 50,< 30,≥ 50,30 to 50,≥ 50,< 30,< 30,< 30,≥ 50,30 to 50,≥ 50,30 to 50,≥ 50,
